Test results published in patent publication US20240167037A1, “CANCER THERAPY” (NATIONAL UNIVERSITY CORPORATION KOBE UNIVERSITY, priority 2021, published 2024).

How the values were obtained:
Type in all cases: cell-based, human
MDA-MB-231 cells [1] = assay: In vitro invasion assay (BioCoat Matrigel Invasion Chambers); conditions: MβCD 4 mM, calyculin A 0.5 nM; drugs added in both sides; 24 h; FIG. 10b
Method: In vitro invasion and migration assays. For invasion and migration assays, we used BioCoat Matrigel Invasion Chambers (Corning) and 8.0 μm PET trans-migration inserts (Corning), respectively. In the invasion assay, 1×10^5 cells were suspended in serum-free medium and seeded on top of the chamber's membrane, in which medium containing serum was placed at the bottom. For MβCD or calyculin A treatment, drugs were added in both sides. Low-invasive epithelial (MCF10A, AU565, and MCF7) cells and MDA-MB-231 cells were incubated for 36 h and 24 h, respectively, and then fixed in 4% formaldehyde. Invaded cells were imaged using a BZ-X700 microscope (Keyence) with 10× magnification and counted. In the migration assay, 5×10^4 cells were seeded on top of the PET membrane, incubated for 24 h, and analyzed as described for the invasion assay. For the quantification of invasive structures grown in 3D on-top culture (FIGS. 5a and b), the elongated mesenchymal-like and rounded morphologies were defined as invasive and non-invasive phenotypes, respectively, and quantified.

MDA-MB-231 cells [2] = assay: Tether force measurement with optical tweezers and estimation of PM tension; conditions: MβCD 4 mM vs mock (FIG. 10c), MA-ezrin expression vs parental (FIG. 4a)
Method: Tether force measurement with optical tweezers and the estimation of PM tension. Tether force measurements were performed with an optical tweezers system (NanoTracker™ 2, JPK Instruments) equipped with an infrared (IR) laser source (3 W, 1064 nm) on an Olympus IX-73 inverted microscope with a 60×(numerical aperture=1.2) water immersion objective (Olympus). Silica beads (1.5 μm diameter, Polysciences) were incubated with concanavalin A (Sigma-Aldrich) at 1 mg/ml for 1 h. Cells were plated onto glass-bottom dishes (WPI). Coated beads were added to the cell culture medium supplemented with 25 mM HEPES (pH 7.5), and experiments were performed at 37° C. Tether force (F) can be calculated using Hooke's law: F=kΔx, where k is the stiffness of the trap and Δx is the displacement of the bead from the trap center. […] The displacement of the bead in the trap center (Δx) was determined by a quadrant photodiode detector with high precision (the resolution less than 1 nm). […] To compare PM tension between non-motile epithelial cells and malignant cells, we measured the tethering force on the lateral sides of cells. […]
PM tension can be estimated with the following formula: T=Ftether^2/8Bπ^2, where T is the apparent plasma membrane tension (PM tension), Ftether is the tether force measured by optical tweezers, and B is the bending stiffness of the membrane. […]

[3] = system: GFP-FBP17 in MDA-MB-231 cells; assay: Confocal quantification of GFP-FBP17 puncta at the plasma membrane; conditions: FIG. 5g, 11c, 11e
Method: Confocal microscopy, live-cell imaging, and image analysis. For immunofluorescence analysis, cells were fixed with 4% formaldehyde in phosphate-buffered saline (PBS) for 10 min and permeabilized with 0.2% Triton X-100 for 10 min in PBS. Cells were blocked with 5% goat serum (Sigma-Aldrich) in PBS for 1 h and were incubated with primary antibodies for at least 3 h. Then, cells were incubated with secondary antibodies for 1 h. For membrane visualization, Alexa Fluor™ 350 conjugated wheat germ agglutinin (WGA) (Thermo Scientific) was incubated with fixed cells for 30 min before permeabilization. For visualization of F-actin, Alexa Fluor™ 568 Phalloidin (Thermo Scientific) was incubated with fixed cells for 30 min. Fluorescence images were captured using a confocal microscopy system (FluoView 1000-D; Olympus) equipped with 405-, 473-, and 568-nm diode lasers through an objective lens (60× oil immersion objective, NA=1.35). […] The aspect ratio was determined as a ratio of the major cell axis length to minor cell axis length, which was calculated automatically by Image J. We observed that elongated cells typically have an aspect ratio of 5-8, whereas that of amoeboid cells is 2-3. […] The mean intensity of pERM or F-actin all along the membrane regions was then calculated and divided by their mean intensities throughout the cytosol (avoiding the nucleus). […]

COC[C@@H]([C@H](O)[C@H](O)C(=O)NCC[C@H](C)c1nc(/C=C/C[C@@H]2O[C@]3(C[C@@H](O)[C@@H]2C)O[C@H]([C@H](C[C@H](O)[C@H](C)[C@H](O)[C@H](C)/C=C(C)/C(C)=C/C=C/C(C)=C\C#N)OC)[C@H](OP(=O)(O)O)C3(C)C)co1)N(C)C [calyculin A] was tested, and the “invasive ability (drug-treated cells that invaded through Matrigel)” value (MDA-MB-231 cells [1]) was “no effect”.
methyl-β-cyclodextrin [MβCD] was tested, and the “invasive ability (drug-treated cells that invaded through Matrigel)” value (MDA-MB-231 cells [1]) was “significantly reduced”, the “PM tension (estimated from tether force)” value (MDA-MB-231 cells [2]) was “increases” and the “recruitment / accumulation of GFP-FBP17 at the PM” value [3] was “sufficient to prevent”.
